# Test results published in patent US3968204A, “Antibiotic A-2315” (priority 1975, dated 1976).
# Experiments:
# Propionibacterium acnes = experiment: MIC, anaerobic bacteria; assay type: cell-based; details: Cutibacterium acnes
# Salmonella typhimurium = experiment: Agar-dilution MIC; assay type: cell-based; details: Salmonella enterica, Agar-Dilution Method
# Mycobacterium avium = experiment: Disc-plate MIC; details: Disc-Plate Method
# Salmonella typhosa = experiment: Agar-dilution MIC; details: Salmonella enterica
# Shigella flexneri = experiment: Disc-plate MIC; assay type: cell-based; details: Disc-Plate Method
# Actinomyces bovis = experiment: MIC, anaerobic bacteria; assay type: cell-based
# Streptococcus faecalis = experiment: Agar-dilution MIC; assay type: cell-based; details: Enterococcus faecalis; Agar-Dilution Method
# [1] = tested on: Staphylococcus aureus 3074; experiment: Agar-dilution MIC; assay type: cell-based
# Clostridium inocuum = experiment: MIC, anaerobic bacteria; assay type: cell-based
# [2] = tested on: Staphylococcus aureus 3074; experiment: Disc-plate MIC; details: Disc-Plate Method; benzylpenicillin-resistant, methicillin-resistant
# [3] = Growth performance of growing chicks; assay type: in vivo; details: 45.4 grams/ton in diet
# Description: Still another useful property of the A-2315 antibiotics is their ability to improve growth performance in animals. For example, when A-2315 factor A was added to the diet of growing chicks at a level of 45.4 grams/ton, the average weight gain after 10 days was 159 grams, as compared with an average weight gain of 148 grams for the control group. The feed-conversion efficiency (feed/gain) for chickens fed antibiotic A-2315 factor A was 1.44; in contrast, the feed-conversion efficiency for the control group was 1.53.
# Ruminal VFA [4] = experiment: Ruminal volatile fatty acids in vivo in fistulated lambs; set-up: species or system sheep; details: 17 days
# Description: Further evidence of the ability of the A-2315 antibiotics to increase feed-utilization efficiency is provided by an in vivo test of A-2315 factor A in sheep, using a procedure as follows:
# Two groups of fistulated lambs are allowed slightly more than their normal feed ration for 17 days. Test compound is administered to one group in the feed on a g/ton basis.
# The rumen fluids of both groups of animals are sampled on days 3, 7, 10, 14 and 17 of the treatment period.
# The fermentation of the ruminal samples is halted by addition of meta-phosphoric acid. Each sample is diluted, centrifuged at 2000 × gravity for 10 minutes; the supernatants are analyzed for volatile fatty acids via the gas chromatographic method of E. S. Erwin, G. J. Marco and E. M. Emery in J. Dairy Sci., 44, 1768 (1966). Molar percentages of ruminal volatile fatty acids are calculated, and the effect is measured as a comparison of the molar percentages of propionic acid in treated animals to those in contemporary controls.
# Ruminal VFA [5] = experiment: Ruminal volatile fatty acids in vitro; set-up: species or system steer; details: 16 hours, 38°C
# Text: Rumen fluid is obtained from a steer with a surgically-installed fistula opening into the rumen. The steer is maintained on a high-grain ration, the composition of which follows:
# A sample of rumen fluid is strained through four layers of cheesecloth, and the filtrate is collected. The particulate matter retained by the cheesecloth is resuspended in enough physiological buffer to return it to the original volume of the rumen fluid, and this suspension is strained again. The buffer used has the following composition:
# The two filtrates are combined and allowed to stand until particulate matter separates to the top. The clear layer is separated, diluted with the same buffer (1:1) and then adjusted to pH 7.0.
# The diluted rumen fluid (10 ml) is placed in a 25-ml flask with 40 mg of the above-described feed, an additional 5 mg of soybean protein, and the test compound. Four replicate flasks are used per treatment. Two sets of four control flasks each are also employed. A zero-time control and an incubated 16-hour control are used. All test flasks are incubated for 16 hours at 38°C. After incubation, the pH is measured; and 25 percent metaphosphoric acid (2 ml) is added to each flask. The samples are allowed to settle, and the supernatant is analyzed by gas chromatography for propionate, acetate, butyrate compounds.
# Test-compound results are statistically compared with control results.
# [6] = tested on: Bacteriodes fragilis ssp. vulgates; experiment: MIC, anaerobic bacteria; assay type: cell-based
# [7] = tested on: anthracnose (Colletotrichum lagenarium); assay type: in vivo; details: 400 ppm
# Text: In yet another aspect of the invention, the A-2315 antibiotics are useful as plant-fungicidal agents.
# [8] = tested on: Fusobacterium necrophorum; experiment: MIC, anaerobic bacteria; assay type: cell-based
# Clostridium perfringens = experiment: microbe, parasite or virus in culture; assay type: cell-based
# Bacillus subtilis = experiment: Disc-plate MIC; details: Disc-Plate Method
# Mycoplasma gallisepticum = experiment: Activity in chicks infected with Mycoplasma gallisepticum; assay type: in vivo, chickens
# Description: The antibiotic factor was prepared in polyethylene glycol 200 and injected subcutaneously in the neck.
# [9] = tested on: cariogenic Streptococcus sp.; experiment: Artificial plaque glass rod test; assay type: cell-based; details: 0.1% solution, contact with plaque-encrusted rods as little as 5 minutes
# Description: Narrow glass rods, which extend below the surface of the nutrient broth, are inserted into the tubes. After incubation at 37°C. overnight, a layer of artificial plaque (primarily cells and dextran) forms on the surface of the rods. The rods are then transferred to solutions containing varying concentrations of test compound and are allowed to remain in contact with these solutions for periods of 5, 10, and 15 minutes. After the appropriate time has elapsed, the rods are rinsed by dipping in sterile, deionized water; the rods are then incubated overnight at 37°C. in uninoculated medium containing sucrose and bromothymol blue. Growth is detected by observing the color change of bromothymol blue from green to yellow, due to acid production by the organisms when grown in a sucrose-containing medium.
# [10] = 0.1 mcg per ml diluted rumen fluid
# [11] = 0.3 mcg per ml diluted rumen fluid
# [12] = 1.0 mcg per ml diluted rumen fluid
# [13] = 3 mg./chick, subcutaneous, at 14 Days, infected controls 7/7
# [14] = surviving infected chickens, subcutaneous
smiles,measurement,setting,value
CC1=CC(O)CC(O)Cc2nc(co2)C(=O)NC(C)C(=O)OC(C(C)C)C(C)C=CC(=O)NCC=C1 (stereo not drawn) [Factor A],MIC,Propionibacterium acnes,8 µg/mL
same,MIC,Salmonella typhimurium,> 100 µg/mL
same,MIC,Mycobacterium avium,3.13 μg/disc
same,MIC,Salmonella typhosa,> 100 µg/mL
same,MIC,Shigella flexneri,1.56 μg/disc
same,MIC,Actinomyces bovis,16 µg/mL
same,MIC,Streptococcus faecalis,1.56 µg/mL
same,MIC,[1],1.56 µg/mL
same,MIC,Clostridium inocuum,32 µg/mL
same,MIC,[2],0.4 μg/disc
same,average weight gain,"[3]; after 10 days, control 148 grams",159 grams
same,feed-conversion efficiency (feed/gain),[3]; control 1.53,1.44
same,% Increase Over Control (propionic acid),Ruminal VFA [4]; 15g/ton in feed,4.8%
same,% Increase over Control (butyric acid),Ruminal VFA [4]; 15g/ton in feed,2.4%
same,Increase Relative to Control (butyric acid),Ruminal VFA [4]; 15g/ton in feed,21.6%
same,Increase Relative to Control (propionic acid),Ruminal VFA [4]; 15g/ton in feed,18.2%
same,% Butyric Acid Conc.,"Ruminal VFA [4]; 15 g/ton in feed, control 11.1",13.5%
same,% Propionic Acid Conc.,"Ruminal VFA [4]; 15g/ton in feed, control 26.2",31.0%
same,"Acetate, ratio of VFA concentration treated to control",Ruminal VFA [5]; [10],0.97
same,"Butyrate, ratio of VFA concentration treated to control",Ruminal VFA [5]; [10],1.01
same,"Propionate, ratio of VFA concentration treated to control",Ruminal VFA [5]; [10],1.07
same,"Total VFA, ratio of concentration treated to control",Ruminal VFA [5]; [10],1.04
same,"Acetate, ratio of VFA concentration treated to control",Ruminal VFA [5]; [11],0.95
same,"Butyrate, ratio of VFA concentration treated to control",Ruminal VFA [5]; [11],1.00
same,"Propionate, ratio of VFA concentration treated to control",Ruminal VFA [5]; [11],1.08
same,"Total VFA, ratio of concentration treated to control",Ruminal VFA [5]; [11],1.07
same,"Acetate, ratio of VFA concentration treated to control",Ruminal VFA [5]; [12],0.95
same,"Butyrate, ratio of VFA concentration treated to control",Ruminal VFA [5]; [12],1.04
same,"Propionate, ratio of VFA concentration treated to control",Ruminal VFA [5]; [12],1.15
same,"Total VFA, ratio of concentration treated to control",Ruminal VFA [5]; [12],1.05
same,MIC,[6],64 µg/mL
same,protection of cucumber plants,[7],moderate protection
same,phytotoxicity,[7]; cucumber plants,Only slight phytotoxicity
same,MIC,[8],16 µg/mL
same,MIC,Clostridium perfringens,32 µg/mL
same,MIC,Bacillus subtilis,50. μg/disc
same,No. Died / No. in Group,"Mycoplasma gallisepticum; 3 mg./chick, subcutaneous in neck, infected",12/20
same,Dead Chicks: Air-Sac Lesions,"Mycoplasma gallisepticum; 3 mg./chick, subcutaneous, 3/9 not examined due to decomposition",9/9
same,Survivors: Air-Sac Lesions,Mycoplasma gallisepticum; [13],0/8
same,Survivors: MG Antibody,Mycoplasma gallisepticum; [13],8/8
same,Survivors: Average Weight,"Mycoplasma gallisepticum; 3 mg./chick, subcutaneous, at 14 Days, infected controls 100 gm., normal controls 214 gm.",133 gm.
same,signs of toxicity,"Mycoplasma gallisepticum; infected chickens, in polyethylene glycol 200, subcutaneous in the neck","No signs of toxicity were seen, except for slight hemorrhage in the neck area in some of the treated chicks that died early"
same,incidence of air-sac lesions,Mycoplasma gallisepticum; [14],lowered incidence of air-sac lesions
same,weight advantage,Mycoplasma gallisepticum; [14],some weight advantage
same,effect on cariogenic organism in artificial plaque,[9],effective
